Measured values from patent US8729082B2, “Substituted imidazoquinoxalines” (Bayer Intellectual Property GmbH, priority 2009, dated 2014).
pIC50: −log10 of the molar value.

Target: T1, human kinase Mps-1 (Homo sapiens, UniProt P33981)
T1 construct: N-terminally GST-tagged human full length recombinant Mps-1 kinase; purchased Invitrogen, Karslruhe, Germany PV4071
T1 sequence (P33981 1-857): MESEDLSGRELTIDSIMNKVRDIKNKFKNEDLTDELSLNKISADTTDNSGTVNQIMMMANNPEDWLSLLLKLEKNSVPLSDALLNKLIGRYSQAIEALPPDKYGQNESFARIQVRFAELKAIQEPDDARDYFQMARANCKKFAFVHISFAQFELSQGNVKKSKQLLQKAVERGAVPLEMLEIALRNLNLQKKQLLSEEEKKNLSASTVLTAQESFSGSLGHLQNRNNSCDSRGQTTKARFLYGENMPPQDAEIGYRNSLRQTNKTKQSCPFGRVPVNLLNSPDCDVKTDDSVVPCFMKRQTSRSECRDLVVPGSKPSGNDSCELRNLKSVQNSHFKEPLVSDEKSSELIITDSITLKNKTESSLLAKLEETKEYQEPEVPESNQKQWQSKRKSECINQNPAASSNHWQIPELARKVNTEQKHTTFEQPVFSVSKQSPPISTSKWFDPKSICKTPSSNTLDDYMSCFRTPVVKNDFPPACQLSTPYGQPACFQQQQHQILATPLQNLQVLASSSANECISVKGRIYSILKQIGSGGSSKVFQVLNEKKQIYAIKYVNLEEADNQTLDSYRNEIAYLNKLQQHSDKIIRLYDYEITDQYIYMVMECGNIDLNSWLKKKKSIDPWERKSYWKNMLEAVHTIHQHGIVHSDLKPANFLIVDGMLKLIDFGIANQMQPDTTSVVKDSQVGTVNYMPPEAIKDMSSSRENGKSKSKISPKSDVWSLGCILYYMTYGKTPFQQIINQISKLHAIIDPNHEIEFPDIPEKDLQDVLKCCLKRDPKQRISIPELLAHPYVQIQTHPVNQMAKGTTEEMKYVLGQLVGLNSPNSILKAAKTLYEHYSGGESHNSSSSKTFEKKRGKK
Experiment: Mps-1 kinase assay (HTRF)
Assay type: biochemical
Conditions: lowATP; mean; read-out: Mps1 lowATP mean IC50
Outline: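 HTRF readout: EDTA-stopped reactions incubated 1 h with europium anti-phospho(Ser/Thr) antibody and streptavidin-XLent, emission ratio 665/620 nm after 350 nm excitation. Kinase step: compound pre-bound 15 min to ~1 nM GST-Mps-1, then 60 min at 22 °C with ATP and biotin-peptide substrate; inhibition scaled between no-inhibitor (0%) and no-enzyme (100%) controls.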

Row | pIC50 | SMILES
1 | 6.43 | CCCNC(=O)c1ccc(-c2cnc3c(NCC(C)C)nc4ccccc4n23)cc1 [Example 3-2, 4-{4-[(2-methylpropyl)amino]imidazo[1,2-a]quinoxalin-1-yl}-N-propylbenzamide]
2 | 6.53 | O=C(NC1CC1)c1ccc(-c2cnc3c(NCCCN4CCCC4=O)nc4ccccc4n23)cc1 [Example 2-11, N-cyclopropyl-4-(4-{[3-(2-oxopyrrolidin-1-yl)propyl]amino}imidazo[1,2-a]quinoxalin-1-yl)benzamide]
3 | 6.48 | Cc1cc2nc(NCC(O)CO)c3ncc(-c4ccc(C(=O)NC5CC5)c(Cl)c4)n3c2cc1C (centres unmarked) [Example 2-202, 2-chloro-N-cyclopropyl-4-{4-[(2,3-dihydroxypropyl)amino]-7,8-dimethylimidazo[1,2-a]quinoxalin-1-yl}benzamide]
4 | 7.28 | NS(=O)(=O)CCNc1nc2cc(F)c(F)cc2n2c(-c3ccc(C(=O)NC4CC4)cc3)cnc12 [Example 2-112, N-cyclopropyl-4-{7,8-difluoro-4-[(2-sulfamoylethyl)amino]imidazo[1,2-a]quinoxalin-1-yl}benzamide]
5 | 5.48 | CNC(=O)Nc1ccc(-c2cnc3c(NCCC(C)C)nc4cc(C#N)ccc4n23)cc1 [Example 2-224, 1-(4-{7-cyano-4-[(3-methylbutyl)amino]imidazo[1,2-a]quinoxalin-1-yl}phenyl)-3-methylurea]
6 | 6.21 | N#Cc1ccc2c(c1)nc(NCc1ccccc1F)c1ncc(-c3ccc(C(=O)NC4CC4)c(Cl)c3)n12 [Example 2-238, 2-chloro-4-{7-cyano-4-[(2-fluorobenzyl)amino]imidazo[1,2-a]quinoxalin-1-yl}-N-cyclopropylbenzamide]
7 | 5.26 | COc1ncc(-c2cnc3c(NCC(C)C)nc4ccccc4n23)cn1 [Example 1-12, 1-(2-methoxypyrimidin-5-yl)-N-(2-methylpropyl)imidazo[1,2-a]quinoxalin-4-amine]
8 | 5.23 | N#Cc1ccc2c(c1)nc(NCCC(N)=O)c1ncc(-c3ccc(C(=O)NC4CC4)c(Cl)c3)n12 [Example 2-248, 4-{4-[(3-amino-3-oxopropyl)amino]-7-cyanoimidazo[1,2-a]quinoxalin-1-yl}-2-chloro-N-cyclopropylbenzamide]
9 | 6.42 | NC(=O)CCNc1nc2ccc(F)cc2n2c(-c3ccc(C(=O)NC4CC4)cc3)cnc12 [Example 2-56, 4-{4-[(3-amino-3-oxopropyl)amino]-8-fluoroimidazo[1,2-a]quinoxalin-1-yl}-N-cyclopropylbenzamide]
10 | 5.88 | CNC(=O)Nc1ccc(-c2cnc3c(NCc4cccc(F)c4)nc4cc(C)c(C)cc4n23)cc1 [Example 2-161, 1-(4-{4-[(3-fluorobenzyl)amino]-7,8-dimethylimidazo[1,2-a]quinoxalin-1-yl}phenyl)-3-methylurea]
11 | 7.14 | O=C(NC1CC1)c1ccc(-c2cnc3c(NCc4ccccc4F)nc4ccccc4n23)cc1 [Example 2-14, N-cyclopropyl-4-{4-[(2-fluorobenzyl)amino]imidazo[1,2-a]quinoxalin-1-yl}benzamide]
12 | 5.77 | O=C(NC1CC1)c1ccc(-c2cnc3c(NCc4ccncc4)nc4cc(F)c(F)cc4n23)cc1Cl [Example 2-136, 2-chloro-N-cyclopropyl-4-{7,8-difluoro-4-[(pyridin-4-ylmethyl)amino]imidazo[1,2-a]quinoxalin-1-yl}benzamide]
13 | 7.91 | CC(C)CNc1nc2ccccc2n2c(-c3ccc(C(=O)NC4CC4)cc3)cnc12 [Example 1-2, N-cyclopropyl-4-(4-isobutylamino-imidazo[1,2-a]quinoxalin-1-yl)-benzamide]
14 | 8.11 | CC(C)CNc1nc2ccccc2n2c(-c3ccc(C(=O)NC4CC4F)cc3)cnc12 (centres unmarked) [Example 3-21, N-(2-fluorocyclopropyl)-4-{4-[(2-methylpropyl)amino]imidazo[1,2-a]quinoxalin-1-yl}benzamide]
15 | 5.42 | O=C(NC1CC1)c1ccc(-c2cnc3c(NCc4ccccc4F)nc4cc(F)c(F)cc4n23)cc1Cl [Example 2-127, 2-chloro-N-cyclopropyl-4-{7,8-difluoro-4-[(2-fluorobenzyl)amino]imidazo[1,2-a]quinoxalin-1-yl}benzamide]
16 | 7.59 | Cc1cc2nc(NCc3ccnn3C)c3ncc(-c4ccc(C(=O)NC5CC5)c(Cl)c4)n3c2cc1C [Example 2-199, 2-chloro-N-cyclopropyl-4-(7,8-dimethyl-4-{[(1-methyl-1H-pyrazol-5-yl)methyl]amino}imidazo[1,2-a]quinoxalin-1-yl)benzamide]

Row | pIC50 | SMILES
17 | 8.02 | CC(C)CNc1nc2cc(C#N)ccc2n2c(-c3ccc(C(=O)NC4CC4)cc3)cnc12 [Example 2-216, 4-{7-cyano-4-[(2-methylpropyl)amino]imidazo[1,2-a]quinoxalin-1-yl}-N-cyclopropylbenzamide]
18 | 4.92 | CC(C)CNc1nc2ccccc2n2c(-c3ccncc3)cnc12 [Example 1-34, N-(2-methylpropyl)-1-(pyridin-4-yl)imidazo[1,2-a]quinoxalin-4-amine]
19 | 6.47 | CC(C)CNc1nc2cc(C#N)ccc2n2c(-c3ccc(C(=O)NC4CC4)c(Cl)c3)cnc12 [Example 2-247, 2-chloro-4-{7-cyano-4-[(2-methylpropyl)amino]imidazo[1,2-a]quinoxalin-1-yl}-N-cyclopropylbenzamide]
20 | 6.90 | Cc1cc2nc(NCc3ccn(C)n3)c3ncc(-c4ccc(C(=O)NC5CC5)c(Cl)c4)n3c2cc1C [Example 2-198, 2-chloro-N-cyclopropyl-4-(7,8-dimethyl-4-{[(1-methyl-1H-pyrazol-3-yl)methyl]amino}imidazo[1,2-a]quinoxalin-1-yl)benzamide]
21 | 4.93 | CC(C)CNc1nc2ccccc2n2c(-c3cccc4cnccc34)cnc12 [Example 1-19, 1-(isoquinolin-5-yl)-N-(2-methylpropyl)imidazo[1,2-a]quinoxalin-4-amine]
22 | 4.95 | NC(=O)CCNc1nc2cc(F)c(F)cc2n2c(-c3ccc(C(=O)NC4CC4)c(Cl)c3)cnc12 [Example 2-138, 4-{4-[(3-amino-3-oxopropyl)amino]-7,8-difluoroimidazo[1,2-a]quinoxalin-1-yl}-2-chloro-N-cyclopropylbenzamide]
23 | 4.70 | CCNC(=O)Nc1ccc(-c2cnc3c(NCC(C)C)nc4ccccc4n23)cc1 [Example 1-3, 1-ethyl-3-[4-(4-isobutylamino-imidazo[1,2-a]quinoxalin-1-yl)-phenyl]-urea]
24 | 7.11 | N#Cc1ccc2c(c1)nc(NCCO)c1ncc(-c3ccc(C(=O)NC4CC4)cc3)n12 [Example 2-204, 4-{7-cyano-4-[(2-hydroxyethyl)amino]imidazo[1,2-a]quinoxalin-1-yl}-N-cyclopropylbenzamide]
25 | 6.52 | CC(C)CNc1nc2ccccc2n2c(-c3ccc(O)cc3)cnc12 [Example 1-37, 4-{4-[(2-methylpropyl)amino]imidazo[1,2-a]quinoxalin-1-yl}phenol]
26 | 4.70 | CCN(CC)C(=O)c1ccc(-c2cnc3c(NCC(C)C)nc4ccccc4n23)cc1 [Example 3-3, N,N-diethyl-4-{4-[(2-methylpropyl)amino]imidazo[1,2-a]quinoxalin-1-yl}benzamide]
27 | 5.75 | CC(C)CNc1nc2ccccc2n2c(-c3ccc(C(=O)NCCO)cc3)cnc12 [Example 3-4, N-(2-hydroxyethyl)-4-{4-[(2-methylpropyl)amino]imidazo[1,2-a]quinoxalin-1-yl}benzamide]
28 | 5.59 | CC(=O)c1ccc(-c2cnc3c(NCC(C)C)nc4ccccc4n23)cc1 [Example 1-24, 1-(4-{4-[(2-methylpropyl)amino]imidazo[1,2-a]quinoxalin-1-yl}phenyl)ethanone]
29 | 5.36 | CNC(=O)Nc1ccc(-c2cnc3c(NCCO)nc4cc(C#N)ccc4n23)cc1 [Example 2-223, 1-(4-{7-cyano-4-[(2-hydroxyethyl)amino]imidazo[1,2-a]quinoxalin-1-yl}phenyl)-3-methylurea]
30 | 7.01 | CCNc1nc2cc(C)c(C)cc2n2c(-c3ccc(C(=O)NC4CC4)c(Cl)c3)cnc12 [Example 2-185, 2-chloro-N-cyclopropyl-4-[4-(ethylamino)-7,8-dimethylimidazo[1,2-a]quinoxalin-1-yl]benzamide]
31 | 4.80 | CC(C)CNc1nc2ccccc2n2c(-c3ccc(C(=O)NC4CCN(Cc5ccccc5)CC4)cc3)cnc12 [Example 3-7, N-(1-benzylpiperidin-4-yl)-4-{4-[(2-methylpropyl)amino]imidazo[1,2-a]quinoxalin-1-yl}benzamide]
32 | 6.87 | CCNc1nc2cc(C)c(C)cc2n2c(-c3ccc(NC(=O)NC)cc3)cnc12 [Example 2-168, 1-{4-[4-(ethylamino)-7,8-dimethylimidazo[1,2-a]quinoxalin-1-yl]phenyl}-3-methylurea]
